# Measured values: paper PMC10823475, “Design, Synthesis, and Evaluation of Inhibitors of Hedgehog Acyltransferase” (Journal of Medicinal Chemistry, 2024)
# Values joined by “and” are separate entries in the source; they are usually repeats but may differ in a detail not shown here. Identical values can stand only once. Like-named read-outs stand apart in the source and are kept apart here.
# Legend:
# [1] = molecular target: T1, purified HHAT (Homo sapiens, UniProt Q5VTY9); test: Acyl-cLIP assay, inhibition of purified HHAT; format: biochemical; conditions: for LLEAcyl-cLIP: from Acyl-cLIP IC50 and clogDpH7.4; for IC50: purified HHAT, read-out: Acyl-cLIP Assay IC50 (CI95); for fold more potent than analogues 19, 32, and 34: meta-methyl on 4-position aromatic ring
# T1 construct: made in house
# Procedure, shortened: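 Percent inhibition was first taken at 50 μM and 25 μM, then IC50 derived from variable-slope dose-response curves of initial rate constants, normalized against DMSO and HHAT-free samples. Reaction: purified DDM-solubilized HHAT transfers palmitoyl from palmitoyl-CoA onto a FAM-SHH peptide (MES, pH 6.5), monitored 30 min by fluorescence anisotropy.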
# [2] = tested on: palmitoylation of SHH in HEK293a SHH+ cells; test: Cell-based YnPal metabolic tagging assay; conditions: for IC50: HEK293-A, HEK293a SHH+ cells
# Experimental: We first quantified the direct impact of previously reported HHAT inhibitors on palmitoylation of SHH using a cell-based metabolic tagging assay.[27],[36] In this assay, HEK293a SHH^+ cells were incubated with varying concentrations of inhibitors in the presence of alkyne palmitic acid derivative YnPal (Figure 5A).[35] Following cell lysis and bioorthogonal derivatization of palmitoylated proteins with capture reagent azide-TAMRA-biotin (AzTB)^67 using a copper catalyzed azide–alkyne cycloaddition (CuAAC) reaction, AzTB-labeled SHH is shifted to higher apparent molecular weight in sodium dodecyl sulfate polyacrylamide gel electrophoresis (SDS-PAGE), thereby enabling quantification of acylated SHH by α-SHH immunoblotting (compound 2, 17, and 22) or fluorescence imaging (compound 24, 28, and 30; SI, Figure S5–S6).[42]
# HEK293a SHH^+ cells were plated at 500,000 cells/well of a 6-well plate in a volume of 3 mL/well and cultured for 24 h as described. Cells were treated with DMSO vehicle, or RUSKI compounds in DMSO (0.016–10 μM final). After 1 h, 3 μL of YnPal (20 mM DMSO stock; 20 μM final) were added and the cells were cultured for another 6 h. Subsequently, cells were washed with PBS and lysed using PBS supplemented with 1% Triton, 0.1% SDS and Complete EDTA-free protease inhibitor cocktail (Roche Diagnostics). Cells were scraped off the plates and lysates centrifuged at 13 000g for 10 min at 4 °C to remove cell debris. Protein concentration was determined using the DC Protein Assay (Bio-Rad) following the manufacturer’s procedure.
# The click reaction in cell lysate was performed as previously described.[42] Briefly, 1 μL AzTB (10 mM in DMSO, 100x), 2 μL CuSO4 (50 mM in H2O, 50x), 2 μL tris(2 carboxyethyl)phosphine hydrochloride (TCEP) (50 mM in H2O, 50×), and 1 μL tris[(1-benzyl-1H-1,2,3-triazol-4-yl)methyl]amine (TBTA, 10 mM in DMSO, 100×) were mixed. Then 6 μL of this click mixture were added to 100 μL of lysate, adjusted with lysis buffer to a protein concentration of 1 mg/mL. The click reaction was shaken at RT for 1 h. Subsequently, proteins were precipitated by adding methanol, chloroform, and water at a ratio of 2:0.5:1 to remove click reagents and excess of AzTB. The mixture was centrifuged (13 000g, 5 min at 4 °C) and the methanol and water containing top layer removed. Following the addition of an excess of methanol, the precipitated proteins were isolated by centrifugation (13 000g, 10 min at 4 °C) and washed twice with methanol. The protein pellets were air-dried and redissolved in PBS containing 0.2% SDS and 0.1 mM DTT using sonication, and adjusted to a final protein concentration of 1 mg/mL.
# For enrichment of YnPal-labeled proteins, 100 μg of lysate were incubated with 30 μL of prewashed (3 × 500 μL of 0.2% SDS in PBS) Dynabeads MyOne Streptavidin C1 beads (Invitrogen) for 1 h at room temperature. Beads ware washed twice with 500 μL of 0.2% SDS in PBS and boiled for 10 min in 15 μL of PBS containing SDS-PAGE sample buffer. The entire pull-down sample and 10 μg of total lysate and supernatant fractions were loaded on a 15% SDS-PAGE gel. Fluorescence was scanned using a Typhoon imager (GE Healthcare; excitation laser: 532 nm, emission filter: LPG (575–700 nm); PMT: 750 V).
# Proteins were transferred to nitrocellulose membrane using a wet transfer apparatus (100 V, 1 h). Membranes were blocked with 5% BSA in TBS-T (0.1% Tween-20, 50 mM Tris, 150 mM NaCl, pH 7.5) for 1 h at room temperature, followed by overnight incubation with SHH H-160 primary antibody (Santa Cruz Biotechnology; sc-9024; 1:200 in TBS-T + 0.5% BSA) or α-tubulin primary antibody (Santa Cruz Biotechnology; sc-8035; 1:200 in TBS-T + 0.5% BSA) at 4 °C. Membranes were washed with TBS-T and further incubated at RT for 1 h with the appropriate secondary antibody (HRP conjugated goat-antimouse IgG (H+L) or goat-antirabbit IgG (H+L); Advansta; 1:10,000 in TBS-T + 0.5% BSA). […]
# [3] = read-out: YnPal tagging IC50 (CI95)
# T1 sequence (Q5VTY9 whole entry): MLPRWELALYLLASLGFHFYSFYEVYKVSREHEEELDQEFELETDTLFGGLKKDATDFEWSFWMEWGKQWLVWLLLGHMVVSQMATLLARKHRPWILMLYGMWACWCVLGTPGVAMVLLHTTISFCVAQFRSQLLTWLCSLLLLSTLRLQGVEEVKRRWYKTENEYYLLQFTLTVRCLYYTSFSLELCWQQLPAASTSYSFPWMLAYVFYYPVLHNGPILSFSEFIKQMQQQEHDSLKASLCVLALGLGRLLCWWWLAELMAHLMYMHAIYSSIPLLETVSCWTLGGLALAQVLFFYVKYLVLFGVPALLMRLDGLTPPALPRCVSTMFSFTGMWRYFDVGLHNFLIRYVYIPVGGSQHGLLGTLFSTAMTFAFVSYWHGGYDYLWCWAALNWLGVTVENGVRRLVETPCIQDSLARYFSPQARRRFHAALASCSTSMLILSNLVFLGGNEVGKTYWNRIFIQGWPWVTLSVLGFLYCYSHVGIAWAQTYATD
SMILES,inhibition at 25 µM [1] [%],inhibition at 50 µM [1] [%],LLEAcyl-cLIP [1],IC50 [1],HHAT inhibition in the acyl-cLIP assay [1],"fold more potent than analogues 19, 32, and 34 [1]","fold increase in potency compared to racemate ([1]; enantiomer vs racemate (29 vs 21, 30 vs 24, 43 vs 39)) [fold]","IC50 [2, 3] [nM]",inhibition of SHH tagging by YnPal [2],"IC50 ([2]; read-out: IC50, cellular YnPal labeling of SHH) [nM]"
C=CCNCC(=O)N1CCc2sccc2C1COc1ccc(Cl)cc1 (centres unmarked) [Compound 2],73 ± 9,87 ± 2,2.48,5760 nM,,,,2350,,
CC(=O)N1CCc2sccc2C1c1ccccc1 (centres unmarked) [Compound 5],66 ± 7,85 ± 5,2.39,5300 nM and 5340 nM,,,,,,
Cc1cccc([C@@H]2c3ccsc3CCN2C(=O)CNCC(C)C)n1 [Compound 28],13 ± 4,18 ± 2,,> 100000 nM,no inhibitory activity,,,> 10000,inactive,
Cc1cccc([C@H]2c3ccsc3CCN2C(=O)CNCC(C)C)n1 [Compound 30],92 ± 4,95 ± 4,5.14,< 10000 nM,,,2,,,76

# More lines, main results first:
inhibition at 25 µM [1] [%],inhibition at 50 µM [1] [%],LLEAcyl-cLIP [1],IC50 [1],HHAT inhibition in the acyl-cLIP assay [1],"fold more potent than analogues 19, 32, and 34 [1]","fold increase in potency compared to racemate ([1]; enantiomer vs racemate (29 vs 21, 30 vs 24, 43 vs 39)) [fold]",SMILES,"IC50 [2, 3] [nM]",inhibition of SHH tagging by YnPal [2],"IC50 ([2]; read-out: IC50, cellular YnPal labeling of SHH) [nM]"
91 ± 4,95 ± 4,4.90,1330 nM,,,,Cc1cccc(C2c3ccsc3CCN2C(=O)CNCC(C)C)n1 (centres unmarked) [Compound 24],490,,
96 ± 1,103 ± 1,4.20,2580 nM,,2–5 fold,,CCC(C)CNCC(=O)N1CCc2sccc2C1c1cccc(C)n1 (centres unmarked) [Compound 22],1080,,
93 ± 7,88 ± 2,2.91,2130 nM,,2–5 fold,,CCC(C)CNCC(=O)N1CCc2sccc2C1c1cccc(C)c1 (centres unmarked) [Compound 17],570,,
